Measurements from US20180206495A1, “SUBSTITUTED ARYL AND HETEROARYL CARBOXYLIC ACID HYDRAZIDES OR SALTS THEREOF AND USE THEREOF TO INCREASE STRESS TOLERANCE IN PLANTS” (BAYER CROPSCIENCE AKTIENGESELLSCHAFT, priority 2015, published 2018).

What was measured:
Triticum aestivum [1] = assay: In vivo analyses Part A: drought stress, spray application, visual damage scoring, Triticum aestivum
Description: (§1) Seeds of monocotyledonous and dicotyledonous crop plants were sown in sandy loam in wood-fiber or plastic pots, covered with soil or sand and cultivated in a greenhouse under good growth conditions. The trial plants were treated at the early leaf stage (BBCH10-BBCH13). To assure uniform water supply before commencement of stress, the potted plants were supplied with water by dam irrigation prior to substance application. The inventive compounds formulated in the form of wettable powders (WP) were sprayed onto the green parts of the plants as an aqueous suspension at an equivalent water application rate of 600 l/ha with addition of 0.2% wetting agent (e.g. agrotin). Substance application was followed immediately by stress treatment of the plants. For this purpose, the wood-fiber pots were transferred in plastic inserts in order to prevent them from subsequently drying out too quickly. Drought stress was induced by gradual drying out under the following conditions: “Day”: 14 hours with illumination at ˜26-30° C. “Night”: 10 hours without illumination at ˜18-20° C. The duration of the respective stress phases was guided mainly by the condition of the stressed control plants. It was ended (by re-irrigating and transfer to a greenhouse with good growth conditions) as soon as irreversible damage was observed on the stressed control plants. The end of the stress phase was followed by an about 4-7-day recovery phase, during which the plants were once again kept under good growth conditions in a greenhouse. The duration of the recovery phase was guided mainly by when the trial plants had attained a state which enabled visual scoring of potential effects, and is therefore variable. Once this juncture was reached, the intensities of damage were scored visually in comparison to untreated, unstressed controls of the same age. The damage intensity was at first assessed in per cent. These values were then used to calculate the efficacy of the test compounds by the following formula: [formula] EF: Efficacy DIs: Damage intensity of the stressed control plants DIt: Damage intensity of the stressed plants treated with test compound The values reported in tables A-1 to A-3 below are mean values from at least one trial with at least two repeats, showing the effects of selected compounds of the general formula (I) under drought stress on various crop plants.

Brassica napus = assay: In vivo analyses Part A: drought stress, spray application, visual damage scoring, Brassica napus
Description: as §1

Zea mays = assay: In vivo analyses Part A: drought stress, spray application, visual damage scoring, Zea mays
Description: as §1

Triticum aestivum [2] = assay: In vivo analyses Part B: drought stress, spray application, appearance vs stressed control in categories, Triticum aestivum; set-up: key: 0: no positive effect; +: slight positive effect; ++: clear positive effect; +++: strong positive effect; conditions: dosage 250 g/ha
Description: Seeds of monocotyledonous and dicotyledonous crop plants were sown in sandy loam in plastic pots, covered with soil or sand and cultivated in a greenhouse under good growth conditions. The test plants are treated at the early leaf stage (BBCH10-BBCH13). To assure uniform water supply before commencement of stress, the potted plants were supplied with water by dam irrigation prior to substance application. The inventive compounds were first formulated as wettable powders (WP) or dissolved in a solvent mixture. The further dilution was effected with water supplemented with 0.2% wetting agent (e.g. agrotin). The finished spray liquor was sprayed onto the green parts of the plant at an equivalent water application rate of 600 l/ha. Substance application was followed immediately by stress treatment of the plants. Drought stress was induced by gradual drying out under the following conditions: “Day”: 14 hours with illumination at ˜26-30° C. “Night”: 10 hours without illumination at ˜18-20° C. The duration of the respective stress phases was guided mainly by the condition of the stressed control plants. It was ended (by re-irrigating and transfer to a greenhouse with good growth conditions) as soon as irreversible damage was observed on the stressed control plants. The end of the stress phase was followed by an about 4-7-day recovery phase, during which the plants were once again kept under good growth conditions in a greenhouse. The duration of the recovery phase was guided mainly by when the trial plants had attained a state which enabled visual scoring of potential effects, and was therefore variable. Once this juncture had been reached, the appearance of the plants treated with test substances was recorded in comparison to the stressed control plants by the following categories: • 0 no positive effect • + slight positive effect • ++ clear positive effect • +++ strong positive effect In order to rule out any influence on the effects observed by any fungicidal or insecticidal action of the test compounds, it was additionally ensured that the tests proceeded without fungal infection or insect infestation. The values reported in tables B-1 and B-2 below are mean values of the results from at least three repeats. Effects of selected compounds of the general formula (I) under drought stress according to the following tables B-1 and B-2: […]

## COc1c(C)cnc(CN(C(=O)c2ccccc2C(F)(F)F)N(C)C)c1C [A1-37]
Triticum aestivum [1]; dosage 250 g/ha
  EF [%] (TRZAS): >5%
Brassica napus; dosage 2.5 g/ha
  EF [%] (BRSNS): >5%

## CN(C)N(Cc1nccc(Cl)c1Cl)C(=O)c1ccccc1C(F)(F)F [A1-40, N-[(3,4-Dichloropyridin-2-yl)methyl]-N′,N′-dimethyl-2-(trifluoromethyl)benzohydrazide]
Triticum aestivum [1]; dosage 250 g/ha
  EF [%] (TRZAS): >5%
Brassica napus; dosage 2.5 g/ha
  EF [%] (BRSNS): >5%
Zea mays; dosage 250 g/ha
  EF [%] (ZEAMX): >5%
Triticum aestivum [2]
  Effect (TRZAS): ++

## COc1ccccc1C(=O)N(Cc1ccccn1)N(C)C [A8-21]
Triticum aestivum [1]; dosage 250 g/ha
  EF [%] (TRZAS): >5%
Brassica napus; dosage 25 g/ha
  EF [%] (BRSNS): >5%
Zea mays; dosage 250 g/ha
  EF [%] (ZEAMX): >5%

## COc1c(C)cnc(CN(C(=O)c2ccc(Cl)cc2Cl)N(C)C)c1C [A12-37]
Triticum aestivum [1]; dosage 25 g/ha
  EF [%] (TRZAS): >5%
Brassica napus; dosage 25 g/ha
  EF [%] (BRSNS): >5%

## CN(C)N(Cc1ccc(Br)cc1F)C(=O)c1ccc(Cl)cc1Cl [A12-44]
Triticum aestivum [1]; dosage 250 g/ha
  EF [%] (TRZAS): >5%
Brassica napus; dosage 25 g/ha
  EF [%] (BRSNS): >5%
Zea mays; dosage 250 g/ha
  EF [%] (ZEAMX): >5%

## Cc1ccc(C(F)(F)F)c(C(=O)N(Cc2ccccn2)N(C)C)c1 [A13-21]
Triticum aestivum [1]; dosage 250 g/ha
  EF [%] (TRZAS): >5%
Brassica napus; dosage 25 g/ha
  EF [%] (BRSNS): >5%
Zea mays; dosage 250 g/ha
  EF [%] (ZEAMX): >5%

## Cc1c(OCC(F)(F)F)ccnc1CN(C(=O)c1cnccc1C(F)(F)F)N(C)C [B1-144]
Triticum aestivum [1]; dosage 25 g/ha
  EF [%] (TRZAS): >5%
Brassica napus; dosage 25 g/ha
  EF [%] (BRSNS): >5%

## CN(C)N(Cc1cccc([N+](=O)[O-])c1)C(=O)c1ccncc1 [C1-111]
Triticum aestivum [1]; dosage 25 g/ha
  EF [%] (TRZAS): >5%
Brassica napus; dosage 2.5 g/ha
  EF [%] (BRSNS): >5%
Zea mays; dosage 25 g/ha
  EF [%] (ZEAMX): >5%
